20 molecules from ChEMBL document CHEMBL1201862, “PubChem BioAssay data set” (2004) can be followed below.

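Test compounds were applied to cells in 96-well plates for 48 hours at 5 doses. The concentration for 50% growth inhibition is given as GI50.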 Calls of active or inactive are those of the source. Cut-off read from the data, not from the text of the source: active = GI50 up to about 1.1 µM and inactive = higher. Some results are limits rather than exact numbers.

Assay in all cases: NCI anticancer screen, dose series, 48 h
Experiment [1] concerns KM-20L2.
Experiment [2] concerns DMS-273.
The test system of experiment [3] is DMS-114.
The test system of experiment [4] is DLD-1.
In experiment [5] the test system is HOP-18.
The test system of experiment [6] is M19-MEL.
Experiment [7] relates to SNB-78.
The subject of experiment [8] is RXF 631.
Experiment [9] deals with XF498.

For `CCOC(=O)N1Cc2ccoc2C1`, the GI50 in experiment [1], in experiment [2], in experiment [3], in experiment [4], in experiment [5] and in experiment [6] was > 100 µM (inactive) throughout.
For `O=C(CCC(=O)N/N=C/c1ccccc1O)N/N=C/c1ccccc1O`, the GI50 is > 100 µM (inactive) in experiment [1]; > 100 µM (inactive) in [2]; > 100 µM (inactive) in [3]; 51.3 µM (inactive) in [7]; > 100 µM (inactive) in experiment [6].
`Cc1cc(C(O)CCCc2ccccc2)cc(C)c1O` (centres undefined): the GI50 in [1] was > 100 µM (inactive); in experiment [8], 51.5 µM (inactive); in experiment [3], 26.2 µM (inactive); in experiment [5] it was > 100 µM (inactive); in experiment [7], 34.9 µM (inactive); in experiment [6], 37.7 µM (inactive).
`O=C(Nc1nc2ncn(CCOC(=O)c3ccccc3)c2c(=S)[nH]1)c1ccccc1`: the GI50 in experiment [1] was > 100 µM (inactive); in [2], 50.9 µM (inactive); in [3], 64.4 µM (inactive); in experiment [4] it was > 100 µM (inactive); in experiment [5], > 100 µM (inactive); in experiment [7] it was 44.1 µM (inactive). For the same molecule, the GI50 in experiment [6] is 50.4 µM (inactive).
As to `COC1OC(COCc2ccc(Cl)cc2)C(OCc2ccc(Cl)cc2)C1N=[N+]=[N-]` (centres undefined), the GI50 is 8 µM (inactive) in experiment [1]; 24.2 µM (inactive) in [3]; > 100 µM (inactive) in [9]; > 100 µM (inactive) in experiment [5]; > 100 µM (inactive) in experiment [7].
In the case of `NC1=NC2=c3ccccc3=C(c3cnccn3)C2(c2cnccn2)c2ccccc21` (centres undefined), the GI50 was > 100 µM (inactive) in experiment [1]; > 100 µM (inactive) in experiment [2]; 50.4 µM (inactive) in [3]; > 100 µM (inactive) in [4]; 36.7 µM (inactive) in experiment [9]; > 100 µM (inactive) in experiment [5]. Also, the values for the GI50 in experiment [7] and in [6] were 49.1 µM (inactive) and > 100 µM (inactive), respectively.
As for `CC1CN1c1c(C(=O)/C=C/c2ccc(Cl)cc2)c(-c2ccccc2)nn(C)c1=O` (centres undefined), the GI50 was 3.26 µM (inactive) in experiment [1]; 2.62 µM (inactive) in experiment [2]; 3.65 µM (inactive) in experiment [3]; 1.71 µM (inactive) in experiment [4]; 2.99 µM (inactive) in [9]; 3.92 µM (inactive) in experiment [5]. The figures for the GI50 in [7] and in [6] were 2.21 µM (inactive) and 3.14 µM (inactive), respectively.
For the molecule `CN=[S+]([O-])(c1ccccc1)c1ccccc1`, the GI50 in experiment [1], in experiment [2], in experiment [3], in [4], in experiment [9] and in experiment [5] was > 100 µM (inactive) throughout. For the same molecule, the GI50 in [7] and in [6] was > 100 µM (inactive) each time.
As to `O=[N+]([O-])c1ccccc1S(=O)(=O)c1ccccc1[N+](=O)[O-]`, the GI50 in experiment [1] was > 100 µM (inactive); in experiment [2], > 100 µM (inactive); in experiment [3], > 90.2 µM (inactive); in [4] it was > 100 µM (inactive); in [9] it was 30.7 µM (inactive); in [5], > 83.2 µM (inactive). In addition, the results for the GI50 in experiment [7] and in experiment [6] were 16.4 µM (inactive) and > 100 µM (inactive), respectively.
Turning to `CCCc1cc(-c2ccc(-c3cc(CCC)c(C=O)[nH]3)s2)[nH]c1C=O`, the GI50 in experiment [2] is 86.1 µM (inactive); in experiment [3], 8.77 µM (inactive); in experiment [4], 44.5 µM (inactive); in experiment [9] it was > 100 µM (inactive); in experiment [5] it was 53 µM (inactive); in [7], > 100 µM (inactive). For the same molecule, the GI50 in [6] was 4.53 µM (inactive).
As for `CCOC(=O)c1cn(CC)c2cc3c(cc2c1=O)SCS3`, the GI50 in experiment [1] was > 100 µM (inactive); in experiment [8] it was > 100 µM (inactive); in experiment [2] it was > 100 µM (inactive); in [3] it was > 100 µM (inactive); in experiment [4], > 100 µM (inactive); in experiment [5] it was 80 µM (inactive). Moreover, the GI50 in [6] was > 100 µM (inactive).
As for `COc1cc([C@@H]2c3cc4c(cc3[C@@H](OC(=O)c3cccc(N)c3)C3COC(=O)[C@@H]32)OCO4)cc(OC)c1O` (some centres undefined), the GI50 in [1] is 1.41 µM (inactive); in experiment [2], 0.525 µM (active); in [3], 3.66 µM (inactive); in [4], 12.3 µM (inactive); in experiment [9] it was 0.863 µM (active); in experiment [7], 64.4 µM (inactive). Moreover, the GI50 in experiment [6] was 5.68 µM (inactive).
As for `O=C(COc1ccccc1Cl)N1N=C(c2ccccc2)CC1(O)c1ccccc1` (centres undefined), the GI50 in experiment [1] was 16.1 µM (inactive); in experiment [2], 16.7 µM (inactive); in experiment [4], 18.5 µM (inactive); in [9] it was 17.6 µM (inactive); in experiment [7] it was 20.4 µM (inactive); in experiment [6], 19 µM (inactive).
`CCOC(=O)C1(Cc2ccc3ccccc3c2)CCCCCN1` (centres undefined): the GI50 is 22.5 µM (inactive) in [1]; 18.9 µM (inactive) in experiment [2]; 26.5 µM (inactive) in [3]; 25.9 µM (inactive) in [4]; 16.2 µM (inactive) in experiment [9]; 25.5 µM (inactive) in [5]. Also, the results for the GI50 in experiment [7] and in experiment [6] were 64.3 µM (inactive) and 31.1 µM (inactive), respectively.
As for `Cc1cn2c(=O)c3ccccc3nc2s1`, the GI50 in [1], in experiment [2], in experiment [3], in experiment [4], in experiment [7] and in [6] was > 100 µM (inactive) throughout.
As to `O=S1(=O)NN=C(NCc2ccc(F)cc2)c2ccccc21`, the GI50 in experiment [1] is > 100 µM (inactive); in experiment [2] it was 47.1 µM (inactive); in experiment [4] it was 58.5 µM (inactive); in experiment [9] it was 65 µM (inactive); in experiment [7] it was 55.6 µM (inactive); in [6], 40.4 µM (inactive).
`CC(C)(CCl)NC(=O)c1cccc(C(=O)NC(C)(C)CCl)n1`: the GI50 in experiment [1], in experiment [8], in experiment [2], in experiment [3], in experiment [4] and in experiment [7] was > 100 µM (inactive) each time. Moreover, in experiment [6], the GI50 is > 100 µM (inactive).
On to `O=C(N/N=C1\C(=O)N(c2nccs2)C(=O)C(=O)C1c1nc2ccccc2s1)c1ccccc1O` (centres undefined), for which the GI50 in experiment [1] is > 100 µM (inactive); in experiment [2], 31.8 µM (inactive); in experiment [3] it was 28.3 µM (inactive); in [4] it was 71.1 µM (inactive); in [9] it was 27.1 µM (inactive); in experiment [5], 10.1 µM (inactive). Also, the GI50 in experiment [7] was 33.3 µM (inactive); in experiment [6], 87.1 µM (inactive).
Take `C=CCCn1nc(-c2ccccc2)oc1=O`: the GI50 in experiment [1], in experiment [2], in experiment [4], in [9], in experiment [5] and in experiment [7] was > 100 µM (inactive) in each case. The GI50 in experiment [6] was > 100 µM (inactive).
Consider `CN/N=C(/Cc1occc(=O)c1O)C(=O)Nc1ccccc1C`, for which the GI50 in experiment [1], in [3], in experiment [7] and in experiment [6] was > 100 µM (inactive) each time.
